Measurements from US9938249B2, “Anti-amyloid compounds containing benzofurazan” (Treventis Corporation, priority 2014, dated 2018).

What was measured:
[1] = biological target: Terminally biotinylated beta-amyloid (Aβ42) (Homo sapiens, UniProt P05067); assay: Aβ42 biotinylated (biotin-AB) oligomerization assay, NeutrAvidin capture ELISA; format: biochemical; conditions: approximate value; 1 hr oligomerization at room temperature; read-out: IC50 Aβ 42-bio
Method: Aβ42 Biotinylated Assay Terminally biotinylated beta-amyloid (biotin-AB) was dissolved in HFIP at the concentration of 1 mg/ml and aliquoted to 50 μl/tube in 0.65 ml colored microfuge tubes (Fisher 02-681-248). The aliquots were diluted immediately by adding 450 μl of HFIP to 0.1 mg/ml. Approximately 46 ul (containing approximately 4.6 ug of biotin-AB) were taken from a tube, 100 ul of HFIP added, vortexed, and dried to a thin film under an N2 stream. 100 μl of trifluoroacetic acid (TFA) was added and vortexed. After 10 minute incubation at room temperature in a hood, resulting in disaggregation of seeds, the sample was vortexed again and dried again to a thin film under an N2 stream. 100 μl of HFIP was added, mixed, and the biotin-AB sample was dried for a third time under an N2 stream to remove residual TFA. The treated biotin-AB was dissolved in DMSO to a final peptide concentration of […] (SOX). An ELISA “capture” plate (Costar 9018) was coated with 50 μl of 1 μg/ml NeutrAvidin™ (NA) in 10 mM sodium phosphate buffer, pH 7.5. (NeutrAvidin can be prepared as 1 mg/ml (1000×) in milliQ water/10% glycerol and stored at −80° C. before use.) The plate was sealed plate with adhesive film and stored at 4° C. overnight, then blocked for 2 hours (unsealed) at room temperature with 200 μl/well OFB+0.1% v/v Tween 20. The “capture” plate was allowed to come to room temperature. Several dilutions of test compound were prepared with 100% DMSO, according to the desired concentration to be tested. 2.5 μl of diluted test compound was pipetted into the bottom of each well of a 96-well “dilution” polypropylene plate (Costar 3365), to which was added 250 ul of Oligomer Formation Buffer (OFB: 20 mM sodium phosphate, pH 7.5-150 mM NaCl). To begin oligomerization, 2 μl/well of the biotin-AB was added to the bottom of each well of a 96-well “reaction” polypropylene plate (Costar 3365) and 100 ul of each well of the “dilution” plate was transferred to the “reaction” plate (final concentration of DMSO being up to 1%). The reaction plate was sealed and incubated for 1 hr at room temperature without shaking. The reaction was then stopped by the addition of 50 ul of 0.3% Tween 20 in water. The “capture” plate blocking solution was removed, and 50 ul of each well of the “reaction” plate was transferred to each well of the “capture” plate. The “capture” plate was sealed and incubated for 2 hours at room temperature with shaking at 150 rpm. The “capture” plate was then washed on a plate washer (3×) with 200 ul/well TBST (20 mM Tris-HCL, pH 7.5/150 mM NaCl/0.1% Tween 20). 50 ul of Streptavidin-horseradish […] (1:20,000 dilution) in OFB+0.1% Tween 20 was added to each well, the “capture” plate was sealed and incubated for 1 hr with shaking at 150 rpm. As before, the plate was washed, then 100 ul of TMB/H2O2 substrate solution was added to each well. After 5-10 minutes, 100 ul of 1% v/v sulfuric acid was added and the absorbance of each well was read at 450 nm using a standard plate reader. Data is summarized in the table below; numbers given in parenthesis for the Aβ 40 Thioflavin T assays are the values in that particular experiment for compound ID 1027, given as the first entry in this table for structural comparison. “IC50 Aβ42-bio” column refers to the approximate value of the Aβ42 biotinylated assay IC50 in micromoles/L.

Aβ40 = Aβ40 (Homo sapiens, UniProt P05067); assay: ThT Aβ aggregation assay (kinetic Thioflavin T fluorescence); format: biochemical; conditions: 20 μM Aβ, DMSO control at 80 hr = 0% inhibition, number in parenthesis = compound ID 1027 in that experiment; for inhibition at 10 µM: compound 10 μM, read-out: % inhib Thioflavin T Aβ 40 10 μM; for % inhib Thioflavin T Aβ 40 (3 μm): compound 3 μm (so in the source); for inhibition at 5 µM: 80 h, compound 5 μm (so in the source), read-out: % inhib Thioflavin T Aβ 40 (5 μm)
Sequence of Aβ40 (P05067 672-711, species assumed): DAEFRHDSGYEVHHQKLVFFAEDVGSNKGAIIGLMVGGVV
Method: Preparation of Aβ40 Stock Solutions
Aβ40 (1.0 mg) was pre-treated in a 1.5 mL microfuge tube with HFIP (1 mL) and sonicated for 20 min to disassemble any pre-formed Aβ aggregates. The HFIP was removed with a stream of argon and the Aβ dissolved in Tris base (5.8 mL, 20 mM, pH ˜10). The pH was adjusted to 7.4 with concentrated HCl (˜10 μL) and the solution filtered using a syringe filter (0.2 μm) before being used.
The kinetic ThT assay for Aβ aggregation is similar to that of Chalifour et al (Chalifour et al, 2003, J. Biol. Chem. 278:34874-81). Briefly, pre-treated Aβ40 or Aβ42 (40 μM in 20 mM Tris, pH 7.4) was diluted with an equal volume of 8 μM Thioflavin T (ThT) in Tris (20 mM, pH 7.4, 300 mM NaCl). Aliquots of Aβ/ThT (200 μL) were added to wells of a black polystyrene 96-well plate, followed by 2 μL of a compound in DMSO (variable concentration), or DMSO alone (controls). Incubations were performed in triplicate and were taken to contain 20 μM Aβ, various concentration of compound in 20 mM Tris, pH 7.4, 150 mM NaCl, 1% DMSO. Plates were covered with clear polystyrene lids and incubated at 37° C. in a Tecan Genios microplate reader.
Analysis of ThT and ThS Aggregation Assays
Fluorescence readings (λex=450 nm, λem=480 nm) were taken every 15 min., after first shaking at high intensity for 15 s and allowing to settle for 10 s before each reading. Active compounds attenuated the increase in fluorescence over time that occurred in controls. In FIGS. 1-7, the time this procedure was performed extended to 80 hours (rightmost part of X-axis), at which point fluorescence increase generally reached an asymptote. Applying a definition of DMSO control at 80 hr as 100% aggregation (0% inhibition) and DMSO control at 0 hr as 0% aggregation (100% inhibition), a % inhibition score where higher is better can be calculated for a given concentration of compound. By repeating this procedure over several concentrations, a […] (IC50) can be measured, as is given in the table below for some compounds.

Sequence of Terminally biotinylated beta-amyloid (Aβ42) (P05067 672-713, species assumed): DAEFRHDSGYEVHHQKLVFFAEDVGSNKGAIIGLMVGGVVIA

Row | Structure (SMILES) | IC50 [1] | inhibition at 10 µM (Aβ40) | % inhib Thioflavin T Aβ 40 (3 μm) (Aβ40) | inhibition at 5 µM (Aβ40)
1 | Clc1cc(Cl)cc(-c2cc(N3CC(CN4CCCC4)C3)c3nonc3c2)c1 [compound 1478] | 1.82 µM | 63% | – | –
2 | COc1ccc(-c2cc(N3CC(CN4CCCC4)C3)c3nonc3c2)cc1C [compound 1488] | 8.69 µM | 31% | – | –
3 | OC(c1ccccc1-c1cc(N2CC(CN3CCOCC3)C2)c2nonc2c1)C(F)(F)F (stereo not drawn) [compound 1471] | 4.4 µM | 29% | – | –
4 | O=C(c1cc(N2CC(CN3CCCC3)C2)c2nonc2c1)C(F)(F)F [compound 1477] | 1.83 µM | 30% | – | –
5 | O=C(c1ccccc1)N1CCN(c2ccc([N+](=O)[O-])c(Nc3ccccc3)c2)CC1 [compound 1027, reference compound] | – | – | 26% | –
6 | CC(C)(C)c1ccc(-c2cc(N3CC(CN4CCCC4)C3)c3nonc3c2)cc1 [compound 1487] | 0.62 µM | 33% | – | –
7 | OCC1CN(c2cc(-c3cccc(C(O)C(F)(F)F)c3)cc3nonc23)C1 (stereo not drawn) [compound 1428] | – | – | 52% | –
8 | FC(F)(F)c1cccc(-c2cc(N3CC(CN4CCCC4)C3)c3nonc3c2)c1 [compound 1484] | 6.5 µM | 56% | – | –
9 | CN(C)C(=O)c1ccccc1-c1cc(N2CC(CN3CCCC3)C2)c2nonc2c1 [compound 1542] | > 20 µM | 36% | – | 15%
10 | CSc1ccccc1-c1cc(N2CC(CN3CCCC3)C2)c2nonc2c1 [compound 1532] | 27.1 µM | 68% | – | –
11 | FC(F)(F)c1ccc(-c2cc(N3CC(CN4CCCC4)C3)c3nonc3c2)cc1 [compound 1502] | 4.78 µM | 55% | – | –
12 | CS(=O)(=O)N1CC=C(c2cc(N3CC(CN4CCCC4)C3)c3nonc3c2)CC1 [compound 1518] | > 20 µM | 35% | – | –
13 | CC(=O)c1cccc(-c2cc(N3CC(CN4CCCC4)C3)c3nonc3c2)c1 [compound 1480] | 6.33 µM | 31% | – | –
14 | COc1cccc(-c2cc(N3CC(CN4CCCC4)C3)c3nonc3c2)c1OC [compound 1500] | > 20 µM | 51% | – | –
15 | OC(c1ccc(-c2cc(N3CCC(N4CCCC4)CC3)c3nonc3c2)s1)C(F)(F)F (stereo not drawn) [compound 1464] | > 20 µM | 35% | – | –
16 | COc1ccc(-c2cc(N3CC(CN4CCCC4)C3)c3nonc3c2)c(OC)c1 [compound 1515] | 16.7 µM | 61% | – | –
17 | CS(=O)(=O)c1ccccc1-c1cc(N2CC(CN3CCCC3)C2)c2nonc2c1 [compound 1481] | 6.14 µM | 11% | – | –

Row | Structure (SMILES) | IC50 [1] | inhibition at 10 µM (Aβ40) | % inhib Thioflavin T Aβ 40 (3 μm) (Aβ40) | inhibition at 5 µM (Aβ40)
18 | OC(c1cc(-c2cc(N3CCC(N4CCCC4)CC3)c3nonc3c2)cs1)C(F)(F)F (stereo not drawn) [compound 1463] | – | 61% | – | 37%
19 | c1csc(-c2cc(N3CC(CN4CCCC4)C3)c3nonc3c2)c1 [compound 1529] | 9 µM | 74% | – | –
20 | CN(C)C1CCN(c2cc(-c3cccc(C(O)C(F)(F)F)c3)cc3nonc23)CC1 (stereo not drawn) [compound 1466] | 4.1 µM | – | – | 37%
21 | CN(C)CCCN(C)c1cc(-c2cccc(C(O)C(F)(F)F)c2)cc2nonc12 (stereo not drawn) [compound 1465] | > 20 µM | – | – | 44%
22 | OC(c1cc(N2CC(CN3CCCC3)C2)c2nonc2c1)C(F)(F)F (stereo not drawn) [compound 1520] | 6.1 µM | 46% | – | –
23 | OC(c1cc(-c2cc(N3CC(CN4CCCC4)C3)c3nonc3c2)cs1)C(F)(F)F (stereo not drawn) [compound 1535] | 2.9 µM | 77% | – | 71%
24 | c1ccc(Oc2ccc(-c3cc(N4CC(CN5CCCC5)C4)c4nonc4c3)cc2)cc1 [compound 1491] | 0.52 µM | 32% | – | –
25 | Cn1nccc1-c1cc(N2CC(CN3CCCC3)C2)c2nonc2c1 [compound 1536] | 4.2 µM | 61% | – | 43%
26 | CC(C)(O)/C=C/c1cc(N2CC(CN3CCOCC3)C2)c2nonc2c1 [compound 1645, (E)-2-methyl-4-(7-(3-(morpholinomethyl)azetidin-1-yl)benzo[c][1,2,5]oxadiazol-5-yl)but-3-en-2-ol] | > 20 µM | – | – | –
27 | NC(=O)c1ccc(-c2cc(N3CC(CN4CCCC4)C3)c3nonc3c2)cc1 [compound 1579, 4-(7-(3-(pyrrolidin-1-ylmethyl)azetidin-1-yl)benzo[c][1,2,5]oxadiazol-5-yl)benzamide] | 96 µM | – | – | –
28 | COc1ccc(-c2cc(N3CC(CN4CCOCC4)C3)c3nonc3c2)cc1Cl [compound 1578, 6-(3-chloro-4-methoxyphenyl)-4-(3-(morpholinomethyl)azetidin-1-yl) benzo[c][1,2,5]oxadiazole] | 2.9 µM | – | – | –
29 | OC(c1cccc(-c2cc(N3CCC3)c3nonc3c2)c1)C(F)(F)F (stereo not drawn) [compound 1432] | – | – | 23% | –
30 | N#Cc1ccccc1-c1cc(N2CC(CN3CCOCC3)C2)c2nonc2c1 [compound 1586, 2-(7-(3-(morpholinomethyl)azetidin-1-yl)benzo[c][1,2,5]oxadiazol-5-yl)benzonitrile] | 41.9 µM | – | – | –
31 | CC(NC1CC1)c1cc(N2CC(CN3CCCC3)C2)c2nonc2c1 (stereo not drawn) [compound 1551] | 6.8 µM | – | – | –
32 | CC(c1cc(N2CC(CN3CCCC3)C2)c2nonc2c1)N(C1CC1)S(C)(=O)=O (stereo not drawn) [compound 1549] | 5.5 µM | – | – | –
33 | NC(=O)c1cccc(-c2cc(N3CC(CN4CCOCC4)C3)c3nonc3c2)c1 [compound 1576, 3-(7-(3-(morpholinomethyl)zetidin-1-yl)benzo[c][1,2,5]oxadiazol-5-yl) benzamide] | 46 µM | – | – | –
34 | OCc1cccc(-c2cc(N3CC(CN4CCOCC4)C3)c3nonc3c2)c1 [compound 1598] | 9.9 µM | – | – | –
